For 10 compounds, IC50 results are on record in patent US10793575B2, “Oxoisoquinoline derivatives” (CARNA BIOSCIENCES, INC., priority 2016, dated 2020).

The structures appear in SMILES notation.

For one assay, the system named is OCI-Ly10 cells. The assay is described as follows: Proliferation-Inhibitory Test Against Diffuse Large-Cell B-Cell Lymphoma OCI-Ly10 Strain. It is filed as cell-based. To be noted: Homo sapiens, 96 hours, alamarBlue. Here is the method: OCI-Ly10 cells were cultured in IMDM medium (Iscove's Modified Dulbecco's Medium, Manufactured by Thermo Fisher Scientific Inc., hereinafter “medium”) containing 20% Fetal bovine serum and 1% penicillin-streptomycin (Nacalai Tesque, Inc.) in a 5% CO2 incubator. OCI-Ly10 cells were seeded to 96-well plate (20000 cells/well), compounds diluted with medium were added with final concentrations of 0.9 nM to 30000 nM (Final DMSO concentration, 0.3%), incubated for 96 hours and alamorBlue reagent (Thermo Fisher Scientific Inc.) was added.
Background: Resazurin is reduced to fluorescent resorufin, in cell work by metabolically active cells.

For another assay, the target named is dephosphorylated BTK (Homo sapiens (Human), UniProt Q06187). In words: BTK Activity Inhibition Test (mobility shift assay). It is filed as biochemical. To be noted: 200 μM ATP, read-out: Inhibitory Activity on BTK. Here is the method: Dephosphorylated BTK was obtained by adding λ protein phosphatase (manufactured by New England BioLabs Inc., Code No. P0753S) and MnCl2 at 10 U/μg and 2 mM, respectively, to biotinylated BTK protein BTN-BTK (Manufactured by Carna Biosciences, Inc.) enzyme solution, reacting the mixture at 4° C. overnight, and removing of λ protein phosphatase by anti […]-tag antibody agarose gel chromatography, followed by buffer exchange using a 10DG Desalting Column.
Sequence of dephosphorylated BTK (Q06187 whole entry): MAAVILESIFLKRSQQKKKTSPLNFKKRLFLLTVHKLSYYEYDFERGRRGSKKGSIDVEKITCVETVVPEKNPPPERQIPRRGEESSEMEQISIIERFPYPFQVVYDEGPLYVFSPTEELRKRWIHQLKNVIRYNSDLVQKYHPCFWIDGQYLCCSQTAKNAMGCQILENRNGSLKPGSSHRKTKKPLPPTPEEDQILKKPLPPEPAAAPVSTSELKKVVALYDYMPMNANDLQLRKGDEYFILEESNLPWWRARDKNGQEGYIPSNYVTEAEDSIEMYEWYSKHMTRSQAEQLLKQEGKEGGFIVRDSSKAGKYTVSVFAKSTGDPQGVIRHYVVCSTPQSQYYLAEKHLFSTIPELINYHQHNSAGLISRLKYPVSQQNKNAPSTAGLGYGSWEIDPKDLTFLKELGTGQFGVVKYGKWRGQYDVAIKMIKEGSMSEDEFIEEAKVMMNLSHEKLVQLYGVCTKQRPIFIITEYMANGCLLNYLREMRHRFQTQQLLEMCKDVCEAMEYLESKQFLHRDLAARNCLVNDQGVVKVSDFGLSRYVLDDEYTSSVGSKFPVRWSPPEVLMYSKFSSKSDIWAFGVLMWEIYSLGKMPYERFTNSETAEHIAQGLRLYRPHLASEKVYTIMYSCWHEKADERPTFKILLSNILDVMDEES
The kinase activity was measured using QuickScout Screening Assist (trade mark) MSA (commercially available kit manufactured by Carna Biosciences, Inc.) by mobility shift assay (MSA) method. The substrate of the kinase reaction was an FITC-labeled SRCtide peptide included in the kit. An assay buffer [20 mM HEPES, 0.01% Triton X-100 (Trade mark), 2 mM dithiothreitol, pH 7.5] was used and adjusted at 4 μM substrate, 20 mM MgCl2 and 200 μm ATP to obtain a substrate mixture solution. The enzyme solution was also prepared by diluting the dephosphorylated BTK to 0.46 nM using the assay buffer. The 10 mM solution of the test compound in DMSO was further diluted with DMSO to 10 levels of the concentration (0.00003 mM, 0.0001 mM, 0.0003 mM, 0.001 mM, 0.003 mM, 0.01 mM, 0.03 mM, 0.1 mM, 0.3 mM, 1 mM), each of which was subjected to a 25-fold dilution with the assay buffer to obtain the drug solutions (4% DMSO solutions). 5 μL of the drug solution or a control solution (4% DMSO-assay buffer), 5 μL of the substrate mixture solution, and 10 μL of the enzyme solution were mixed in the wells of a polypropylene 384-well plate and allowed to react at room temperature for 2 hours, and then quenched by adding 60 μL of the termination buffer included in the kit. Subsequently, the quantities of the substrates (S) and the phosphorylated substrate (P) in the reaction solution were measured using LabChip EZ Reader II system (manufactured by Caliper Life Sciences) according to the protocol of the assay kit.
The heights of the peaks of the isolated substrate and the phosphorylated substrate were represented as S and P, respectively, and a blank which contained the assay buffer instead of the enzyme solution was also measured.
The inhibition rate (%) of the test compound was calculated according to the following equation; Inhibition rate (%)=(1−(C−A)/(B−A))×100 • wherein, A, B and C represent P/(P+S) of the blank well, P/(P+S) of the control well and P/(P+S) of the compound-containing well, respectively.
The IC50 value was calculated via a regression analysis of the inhibition rate (%) and the test compound concentration (logarithmic value).

For the compound `Nc1nc(-c2cccc(-n3ccc4cc(C5CC5)cc(F)c4c3=O)c2CO)c2cc(-c3ccc(C(F)(F)F)cc3)[nH]c2n1` [Example 37, 2-(3-{2-amino-6-[4-(trifluoromethyl)phenyl]-7H-pyrrolo[2,3-d]pyrimidin-4-yl}-2-(hydroxymethyl)phenyl)-6-cyclopropyl-8-fluoroisoquinolin-1(2H)-one], the figures for the IC50 in the assay with OCI-Ly10 cells and at dephosphorylated BTK were 499 nM and < 10 nM, respectively.

On to `Nc1nc(-c2cccc(-n3ccc4cc(C5CC5)cc(F)c4c3=O)c2CO)c2cc(-c3ccc(F)cc3F)[nH]c2n1` [Example 35, 2-{3-[2-amino-6-(2,4-difluorophenyl)-7H-pyrrolo[2,3-d]pyrimidin-4-yl]-2-(hydroxymethyl)phenyl}-6-cyclopropyl-8-fluoroisoquinolin-1(2H)-one], for which the IC50 is 428 nM in the assay on OCI-Ly10 cells and < 10 nM on dephosphorylated BTK.

Regarding `Cn1cc(-c2nc3c(-c4cccc(-n5ccc6cc(C7CC7)cc(F)c6c5=O)c4CO)nc(N)nc3[nH]2)cn1` [Example 31, 2-{3-[2-amino-8-(1-methyl-1H-pyrazol-4-yl)-9H-purin-6-yl]-2-(hydroxymethyl)phenyl}-6-cyclopropyl-8-fluoroisoquinolin-1(2H)-one], the figures for the IC50 in the assay on OCI-Ly10 cells and at dephosphorylated BTK were 45 nM and < 10 nM, respectively. On to `Nc1nc(-c2cccc(-n3ccc4cc(C5CC5)cc(F)c4c3=O)c2CO)c2cc(-c3ccc(OC(F)(F)F)cc3)[nH]c2n1` [Example 38, 2-(3-{2-amino-6-[4-(trifluoromethoxy)phenyl]-7H-pyrrolo[2,3-d]pyrimidin-4-yl}-2-(hydroxymethyl)phenyl)-6-cyclopropyl-8-fluoroisoquinolin-1(2H)-one], for which the IC50 with OCI-Ly10 cells was 366 nM; on dephosphorylated BTK it was 10 to 100 nM.

Consider `Nc1nc(-c2cccc(-n3ccc4cc(C5CC5)cc(F)c4c3=O)c2CO)c2cc(-c3ccc(F)cc3)[nH]c2n1` [Example 34, 2-{3-[2-amino-6-(4-fluorophenyl)-7H-pyrrolo[2,3-d]pyrimidin-4-yl]-2-(hydroxymethyl)phenyl}-6-cyclopropyl-8-fluoroisoquinolin-1(2H)-one], for which the IC50 in the assay with OCI-Ly10 cells was 102 nM; on dephosphorylated BTK, < 10 nM. With `NCc1cc2c(-c3cccc(-n4ccc5cc(C6CC6)cc(F)c5c4=O)c3CO)nc(N)nc2[nH]1` [Example 39, 2-{3-[2-amino-6-(aminomethyl)-7H-pyrrolo[2,3-d]pyrimidin-4-yl]-2-(hydroxymethyl)phenyl}-6-cyclopropyl-8-fluoroisoquinolin-1(2H)-one], the IC50 is 1050 nM with OCI-Ly10 cells and 10 to 100 nM on dephosphorylated BTK. For `Nc1nc(-c2cccc(-n3ccc4cc(C5CC5)cc(F)c4c3=O)c2CO)c2cc(-c3cccc(C(F)(F)F)c3)[nH]c2n1` [Example 40, 2-(3-{2-amino-6-[3-(trifluoromethyl)phenyl]-7H-pyrrolo[2,3-d]pyrimidin-4-yl}-2-(hydroxymethyl)phenyl)-6-cyclopropyl-8-fluoroisoquinolin-1(2H)-one], the IC50 is 1330 nM in the assay with OCI-Ly10 cells and < 10 nM on dephosphorylated BTK. Turning to `Nc1nc(-c2cccc(-n3ccc4cc(C5CC5)cc(F)c4c3=O)c2CO)c2cc(-c3ccccc3F)[nH]c2n1` [Example 33, 2-{3-[2-amino-6-(2-fluorophenyl)-7H-pyrrolo[2,3-d]pyrimidin-4-yl]-2-(hydroxymethyl)phenyl}-6-cyclopropyl-8-fluoroisoquinolin-1(2H)-one], the IC50 in the assay with OCI-Ly10 cells was 197 nM; on dephosphorylated BTK, < 10 nM.

With `Nc1nc(-c2cccc(-n3ccc4cc(C5CC5)cc(F)c4c3=O)c2CO)c2cc(-c3ccc(F)c(F)c3)[nH]c2n1` [Example 36, 2-{3-[2-amino-6-(3,4-difluorophenyl)-7H-pyrrolo[2,3-d]pyrimidin-4-yl]-2-(hydroxymethyl)phenyl}-6-cyclopropyl-8-fluoroisoquinolin-1(2H)-one], the IC50 is 450 nM in the assay with OCI-Ly10 cells and < 10 nM at dephosphorylated BTK. Take `COc1cccc(-c2n[nH]c3nc(N)nc(-c4cccc(-n5ccc6cc(C7CC7)cc(F)c6c5=O)c4CO)c23)c1` [Example 22, 2-{3-[6-amino-3-(3-methoxyphenyl)-1H-pyrazolo[3,4-d]pyrimidin-4-yl]-2-(hydroxymethyl)phenyl}-6-cyclopropyl-8-fluoroisoquinolin-1(2H)-one]: at dephosphorylated BTK, the IC50 was < 10 nM.
